Data as given in patent US20220289685A1, “ANTIMALARIAL HEXAHYDROPYRIMIDINE ANALOGUES” (UCB BIOPHARMA SRL, priority 2019, published 2022).
Counter-ions that a name gives are not always drawn.

Each compound was assayed on Plasmodium falciparum 3D7 strain (assay: P. falciparum 3D7 asexual blood stage assay (SYBR green readout)). Settings: Plasmodium falciparum, 3D7, Erythrocyte, 72 h.
Assay type: cell-based
Summary of the method: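 P. falciparum 3D7 in A+ erythrocytes (5% haematocrit, 0.5% parasitaemia) exposed 72 h at 37 °C under 1% O2/3% CO2 to 20-point 1.5-fold titrations, 50,000–15 nM in 0.5% DMSO. SYBR green lysis overnight, fluorescence 485/528 nm; normalized to mefloquine and DMSO, EC50 from biphasic two-site fit.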

| Structure (SMILES) | IC50 [µM] |
| --- | --- |
| C[C@@H]1C[C@H](N2C(=N)N[C@](C)(c3cccc(NC(=O)c4ccnn4C)c3Cl)CC2=O)CCO1 (relative stereo) [Example 51, N-(2-Chloro-3-{(4S)-2-imino-4-methyl-1-[(2R*,4R*)-2-methyl-tetrahydropyran-4-yl]-6-oxo-hexahydropyrimidin-4-yl}phenyl)-2-methylpyrazole-3-carboxamide trifluoroacetic acid salt] | 0.059 |
| COc1ccc(S(C)(=O)=O)cc1C(=O)Nc1cccc([C@]2(C)CC(=O)N([C@@H]3CCO[C@H](C)C3)C(=N)N2)c1Cl (relative stereo) [Example 85, N-(2-Chloro-3-{(4S)-2-imino-4-methyl-1-[(2R*,4R*)-2-methyl-tetrahydropyran-4-yl]-6-oxo-hexahydropyrimidin-4-yl}phenyl)-2-methoxy-5-(methylsulfonyl)-benzamide trifluoroacetic acid salt] | 0.076 |
| C[C@@H]1C[C@H](N2C(=N)N[C@](C)(c3cccc(NC(=O)c4cc(C#N)ccc4Cl)c3Cl)CC2=O)CCO1 (relative stereo) [Example 98, 2-Chloro-N-(2-chloro-3-{(4S)-2-imino-4-methyl-1-[(2R*,4R*)-2-methyltetrahydropyran-4-yl]-6-oxo-hexahydropyrimidin-4-yl}phenyl)-5-cyanobenzamide hydrochloride] | 0.045 |
| C[C@@H]1C[C@H](N2C(=N)N[C@](C)(c3cccc(NC(=O)c4ccc(C5CC5)nc4)c3Cl)CC2=O)CCO1 (relative stereo) [Example 53, N-(2-Chloro-3-{(4S)-2-imino-4-methyl-1-[(2R*,4R*)-2-methyl-tetrahydropyran-4-yl]-6-oxo-hexahydropyrimidin-4-yl}phenyl)-6-cyclopropylpyridine-3-carboxamide hydrochloride] | 0.63 |
| C[C@@H]1C[C@H](N2C(=N)N[C@](C)(c3cccc(NC(=O)c4ccccc4S(C)(=O)=O)c3Cl)CC2=O)CCO1 (relative stereo) [Example 81, N-(2-Chloro-3-{(4S)-2-imino-4-methyl-1-[(2R*,4R*)-2-methyl-tetrahydropyran-4-yl]-6-oxo-hexahydropyrimidin-4-yl}phenyl)-2-(methylsulfonyl)benzamide trifluoroacetic acid salt] | 0.182 |
| C[C@@H]1C[C@H](N2C(=N)N[C@](C)(c3cccc(NC(=O)c4cnccn4)c3Cl)CC2=O)CCO1 (relative stereo) [Example 14, N-(2-Chloro-3-{(4S)-2-imino-4-methyl-1-[(2R*,4R*)-2-methyl-tetrahydropyran-4-yl]-6-oxo-hexahydropyrimidin-4-yl}phenyl)-pyrazine-2-carboxamide hydrochloride] | 0.014 |
| C[C@@H]1C[C@H](N2C(=N)N[C@](C)(c3cccc(NC(=O)c4cc(C(F)(F)F)ccc4F)c3Cl)CC2=O)CCO1 (relative stereo) [Example 83, N-(2-Chloro-3-{(4S)-2-imino-4-methyl-1-[(2R*,4R*)-2-methyl-tetrahydropyran-4-yl]-6-oxo-hexahydropyrimidin-4-yl}phenyl)-2-fluoro-5-(trifluoromethyl)-benzamide trifluoroacetic acid salt] | 0.018 |

Same assay, conditions: Plasmodium falciparum, Erythrocyte; P. falciparum 3D7 in human erythrocytes, 72 h incubation, SYBR green fluorescence; read-out: IC50

| Structure (SMILES) | IC50 [µM] |
| --- | --- |
| C[C@@H]1C[C@H](N2C(=N)N[C@](C)(c3cccc(NC(=O)c4cc(F)c(F)cc4F)c3Cl)CC2=O)CCO1 (relative stereo) [Example 64, N-(2-Chloro-3-{(4S)-2-imino-4-methyl-1-[(2,R*,4R*)-2-methyl-tetrahydropyran-4-yl]-6-oxo-hexahydropyrimidin-4-yl}phenyl)-2,4,5-trifluorobenzamide hydrochloride] | 0.013 |
| COc1ccc(F)cc1C(=O)Nc1cccc([C@]2(C)CC(=O)N([C@@H]3CCO[C@H](C)C3)C(=N)N2)c1Cl (relative stereo) [Example 87, N-(2-Chloro-3-{(4S)-2-imino-4-methyl-1-[(2,R*,4R*)-2-methyl-tetrahydropyran-4-yl]-6-oxo-hexahydropyrimidin-4-yl}phenyl)-5-fluoro-2-methoxybenzamide trifluoroacetic acid salt] | 0.018 |
